Measured values as given in patent US20200054633A1 (priority 2017, published 2020).
Where two headings read alike, the source gives them in different places.

Experiments:
[1] = test system: acute uncomplicated seasonal influenza A; assay: Clinical study: nasal viral load by qRT-PCR (AUC, LS means, time to viral negativity); assay type: in vivo, human; settings: for LS Means viral load (qRT-PCR) Day 3 / LS Means viral load (qRT-PCR) Day 4 / LS Means viral load (qRT-PCR) Day 6 / LS Means viral load (qRT-PCR) Day 8: log10 nasal viral load; for LS Means viral load (qRT-PCR) Day 3 / LS Means viral load (qRT-PCR) Day 4 / LS Means viral load (qRT-PCR) Day 6 / LS Means viral load (qRT-PCR) Day 8 / Change in AUC Viral Load (by qRT-PCR) Days 1 to 8 versus placebo / Time to influenza A negativity (qRT-PCR) Acceleration Factor: Full Analysis Set; for Time to influenza A negativity (qRT-PCR) Acceleration Factor: versus placebo, accelerated failure time model
Influenza A = assay type: in vivo, human; settings: for Acceleration Factor, time to Influenza A negativity (TCID50), treatment versus placebo: accelerated failure time model, Full Analysis Set
[2] = Clinical study: treatment-emergent laboratory toxicities, ECG, vital signs; assay type: in vivo, human; settings: for Worst treatment-emergent toxicity: Glucose hyperglycemia Grade 3 / Worst treatment-emergent toxicity: ALT increase by factor Grade 3 / Worst treatment-emergent toxicity: ALT increase by factor Grade 4 / Worst treatment-emergent toxicity: AST increase by factor Grade 4 / Worst treatment-emergent toxicity: CPK Grade 3 / Worst treatment-emergent toxicity: CPK Grade 4 / Worst treatment-emergent toxicity: Cholesterol Grade 3 / Worst treatment-emergent toxicity: Hemoglobin - change from baseline Grade 3 / Worst treatment-emergent toxicity: Hyperkalemia Grade 3 / Worst treatment-emergent toxicity: Hyperkalemia Grade 4 / Worst treatment-emergent toxicity: Hypernatremia Grade 3 / Worst treatment-emergent toxicity: Hypernatremia Grade 4 / Worst treatment-emergent toxicity: Hypocalcemia Grade 4 / Worst treatment-emergent toxicity: Hypoglycemia Grade 3 / Worst treatment-emergent toxicity: Hypokalemia Grade 3 / Worst treatment-emergent toxicity: Hypokalemia Grade 4 / Worst treatment-emergent toxicity: Hypomagnesemia Grade 3 / Worst treatment-emergent toxicity: Hyponatremia Grade 3 / Worst treatment-emergent toxicity: Hypophosphatemia Grade 3 / Worst treatment-emergent toxicity: Neutrophils decrease Grade 3 / Worst treatment-emergent toxicity: Neutrophils decrease Grade 4 / Worst treatment-emergent toxicity: Urine RBC increased Grade 3 / Worst treatment-emergent toxicity: Urine WBC increased Grade 3 / Worst treatment-emergent toxicity: Urine glucose increased Grade 3 / Worst treatment-emergent toxicity: Urine protein increased Grade 3: OST placebo; for Worst treatment-emergent toxicity: ALT increase by factor Grade 3 / Worst treatment-emergent toxicity: ALT increase by factor Grade 4 / Worst treatment-emergent toxicity: AST increase by factor Grade 4 / Worst treatment-emergent toxicity: CPK Grade 3 / Worst treatment-emergent toxicity: CPK Grade 4 / Worst treatment-emergent toxicity: Cholesterol Grade 3 / Worst treatment-emergent toxicity: Hemoglobin - change from baseline Grade 3 / Worst treatment-emergent toxicity: Hyperkalemia Grade 3 / Worst treatment-emergent toxicity: Hyperkalemia Grade 4 / Worst treatment-emergent toxicity: Hypernatremia Grade 3 / Worst treatment-emergent toxicity: Hypernatremia Grade 4 / Worst treatment-emergent toxicity: Hypocalcemia Grade 4 / Worst treatment-emergent toxicity: Hypoglycemia Grade 3 / Worst treatment-emergent toxicity: Hypokalemia Grade 3 / Worst treatment-emergent toxicity: Hypokalemia Grade 4 / Worst treatment-emergent toxicity: Hypomagnesemia Grade 3 / Worst treatment-emergent toxicity: Hyponatremia Grade 3 / Worst treatment-emergent toxicity: Hypophosphatemia Grade 3 / Worst treatment-emergent toxicity: Neutrophils decrease Grade 3 / Worst treatment-emergent toxicity: Neutrophils decrease Grade 4 / Worst treatment-emergent toxicity: Urine RBC increased Grade 3 / Worst treatment-emergent toxicity: Urine WBC increased Grade 3 / Worst treatment-emergent toxicity: Urine glucose increased Grade 3 / Worst treatment-emergent toxicity: Urine protein increased Grade 3: Safety Set 74
[3] = Clinical study: study drug discontinuation and reasons; assay type: in vivo, human
Excerpt: Given the sizable difference between the FAS and the Safety Set, summary tables are provided for both analysis sets. Table 4 and Table 5 present a summary of subjects who completed or discontinued study drug and/or the study for the FAS and the Safety Set, respectively.

[4] = test system: acute uncomplicated seasonal influenza A; assay: Clinical study: time to resolution of the 7 primary influenza symptoms (Flu-iiQ); settings: for Median (95% CI): untitled table, presumably time to symptom resolution
Excerpt: This study followed a randomized, double-blind, placebo-controlled, parallel-group, multicenter design.
Key secondary efficacy variable: Time to resolution of influenza symptoms after initiation of study drug. Resolution of influenza symptoms was defined as the first Flu iiQ™ recording of a successive series of 3 recordings (over 4 scheduled successive analysis time points, 1 missing time point is allowed) in which all symptom scores for each of the 3 assessments were at most mild for all 7 primary influenza symptoms (cough, sore throat, headache, nasal stuffiness, feverishness or chills, muscle or joint pain, and fatigue).

[5] = Cmpd (1) 300 mg + OST placebo, Full Analysis Set
[6] = Cmpd (1) 300 mg + OST placebo, Safety Set
[7] = Cmpd (1) 600 mg + OST placebo, Full Analysis Set
[8] = Cmpd (1) 600 mg + OST placebo, Safety Set

For O=C(O)[C@H]1C2CCC(CC2)[C@@H]1Nc1nc(-c2c[nH]c3ncc(F)cc23)ncc1F [Compound (1), Pimodivir], the “LS Means viral load (qRT-PCR) Day 3” value ([1]; Cmpd (1) 300 mg + OST placebo) was 5.2, the “LS Means viral load (qRT-PCR) Day 4” value ([1]; Cmpd (1) 300 mg + OST placebo) was 3.9 and the “LS Means viral load (qRT-PCR) Day 6” value ([1]; Cmpd (1) 300 mg + OST placebo) was 2.5. For the same compound, the “LS Means viral load (qRT-PCR) Day 8” value ([1]; Cmpd (1) 300 mg + OST placebo) was 1.4, the “LS Means viral load (qRT-PCR) Day 3” value ([1]; Cmpd (1) 600 mg + OST placebo) was 4.9 and the “LS Means viral load (qRT-PCR) Day 4” value ([1]; Cmpd (1) 600 mg + OST placebo) was 3.8. The “LS Means viral load (qRT-PCR) Day 6” value ([1]; Cmpd (1) 600 mg + OST placebo) was 2.5, the “LS Means viral load (qRT-PCR) Day 8” value ([1]; Cmpd (1) 600 mg + OST placebo) was 1.0 and the “reduction of time to viral negativity (qRT-PCR) versus placebo” value ([1]; Compound (1) 300 mg bid) was 13%. The “Change in AUC Viral Load (by qRT-PCR) Days 1 to 8 versus placebo” value ([1]; Compound (1) 300 mg bid) was −3.6 day*log10 copies/mL, the “reduction of time to viral negativity (qRT-PCR) versus placebo” value ([1]; Compound (1) 600 mg bid) was 18% and the “Change in AUC Viral Load (by qRT-PCR) Days 1 to 8 versus placebo” value ([1]; Compound (1) 600 mg bid) was −4.5 day*log10 copies/mL. The “effect on AUC of viral load (by qRT-PCR) over 7 days from start of dosing” value ([1]; Compound (1) treatment versus placebo) was “statistically significant and dose-dependent decrease in AUC of viral load”, the “Time to influenza A negativity (qRT-PCR) Acceleration Factor” value ([1]; Cmpd (1) 300 mg + OST placebo) was 0.87 and the “Time to influenza A negativity (qRT-PCR) Acceleration Factor” value ([1]; Cmpd (1) 600 mg + OST placebo) was 0.82. The “Acceleration Factor, time to Influenza A negativity (TCID50), treatment versus placebo” value (Influenza A; Cmpd (1) 300 mg + OST placebo) was 0.71, the “Acceleration Factor, time to Influenza A negativity (TCID50), treatment versus placebo” value (Influenza A; Cmpd (1) 600 mg + OST placebo) was 0.72 and the “reduction in time to negative viral load (viral culture) versus placebo” value (Influenza A; Compound (1) 300 mg bid) was 29%. For the same compound, the “reduction in time to negative viral load (viral culture) versus placebo” value (Influenza A; Compound (1) 600 mg bid) was 28%, the “Worst treatment-emergent toxicity: Glucose hyperglycemia Grade 3” value ([2]; 300 mg, N 73) was 1 (1.4%) and the “Worst treatment-emergent toxicity: ALT increase by factor Grade 3” value ([2]; 300 mg) was 0. For the same compound, the “Worst treatment-emergent toxicity: ALT increase by factor Grade 4” value ([2]; 300 mg) was 0, the “Worst treatment-emergent toxicity: AST increase by factor Grade 4” value ([2]; 300 mg) was 0 and the “Worst treatment-emergent toxicity: CPK Grade 3” value ([2]; 300 mg) was 1 (1.4%). The “Worst treatment-emergent toxicity: CPK Grade 4” value ([2]; 300 mg) was 0, the “Worst treatment-emergent toxicity: Cholesterol Grade 3” value ([2]; 300 mg) was 0 and the “Worst treatment-emergent toxicity: Hemoglobin - change from baseline Grade 3” value ([2]; 300 mg) was 5 (7.1%). The “Worst treatment-emergent toxicity: Hyperkalemia Grade 3” value ([2]; 300 mg) was 1 (1.4%), the “Worst treatment-emergent toxicity: Hyperkalemia Grade 4” value ([2]; 300 mg) was 0 and the “Worst treatment-emergent toxicity: Hypernatremia Grade 3” value ([2]; 300 mg) was 0. For the same compound, the “Worst treatment-emergent toxicity: Hypernatremia Grade 4” value ([2]; 300 mg) was 0, the “Worst treatment-emergent toxicity: Hypocalcemia Grade 4” value ([2]; 300 mg) was 1 (1.4%) and the “Worst treatment-emergent toxicity: Hypoglycemia Grade 3” value ([2]; 300 mg) was 0. The “Worst treatment-emergent toxicity: Hypokalemia Grade 3” value ([2]; 300 mg) was 0, the “Worst treatment-emergent toxicity: Hypokalemia Grade 4” value ([2]; 300 mg) was 0 and the “Worst treatment-emergent toxicity: Hypomagnesemia Grade 3” value ([2]; 300 mg) was 1 (1.4%). The “Worst treatment-emergent toxicity: Hyponatremia Grade 3” value ([2]; 300 mg) was 0, the “Worst treatment-emergent toxicity: Hypophosphatemia Grade 3” value ([2]; 300 mg) was 2 (2.7%) and the “Worst treatment-emergent toxicity: Neutrophils decrease Grade 3” value ([2]; 300 mg) was 1 (1.4%). The “Worst treatment-emergent toxicity: Neutrophils decrease Grade 4” value ([2]; 300 mg) was 0, the “Worst treatment-emergent toxicity: Urine RBC increased Grade 3” value ([2]; 300 mg) was 3 (9.4%) and the “Worst treatment-emergent toxicity: Urine WBC increased Grade 3” value ([2]; 300 mg) was 0. For the same compound, the “Worst treatment-emergent toxicity: Urine glucose increased Grade 3” value ([2]; 300 mg) was 1 (1.4%), the “Worst treatment-emergent toxicity: Urine protein increased Grade 3” value ([2]; 300 mg) was 0 and the “Worst treatment-emergent toxicity: Glucose hyperglycemia Grade 3” value ([2]; 600 mg, N 70) was 0. For the same compound, the “Worst treatment-emergent toxicity: ALT increase by factor Grade 3” value ([2]; 600 mg) was 1, the “Worst treatment-emergent toxicity: ALT increase by factor Grade 4” value ([2]; 600 mg) was 1 and the “Worst treatment-emergent toxicity: AST increase by factor Grade 4” value ([2]; 600 mg) was 1. The “Worst treatment-emergent toxicity: CPK Grade 3” value ([2]; 600 mg) was 2, the “Worst treatment-emergent toxicity: CPK Grade 4” value ([2]; 600 mg) was 1 and the “Worst treatment-emergent toxicity: Cholesterol Grade 3” value ([2]; 600 mg) was 4. For the same compound, the “Worst treatment-emergent toxicity: Hemoglobin - change from baseline Grade 3” value ([2]; 600 mg) was 3, the “Worst treatment-emergent toxicity: Hyperkalemia Grade 3” value ([2]; 600 mg) was 1 and the “Worst treatment-emergent toxicity: Hyperkalemia Grade 4” value ([2]; 600 mg) was 2. The “Worst treatment-emergent toxicity: Hypernatremia Grade 3” value ([2]; 600 mg) was 0, the “Worst treatment-emergent toxicity: Hypernatremia Grade 4” value ([2]; 600 mg) was 0 and the “Worst treatment-emergent toxicity: Hypocalcemia Grade 4” value ([2]; 600 mg) was 0. The “Worst treatment-emergent toxicity: Hypoglycemia Grade 3” value ([2]; 600 mg) was 2, the “Worst treatment-emergent toxicity: Hypokalemia Grade 3” value ([2]; 600 mg) was 1 and the “Worst treatment-emergent toxicity: Hypokalemia Grade 4” value ([2]; 600 mg) was 1. The “Worst treatment-emergent toxicity: Hypomagnesemia Grade 3” value ([2]; 600 mg) was 0, the “Worst treatment-emergent toxicity: Hyponatremia Grade 3” value ([2]; 600 mg) was 0 and the “Worst treatment-emergent toxicity: Hypophosphatemia Grade 3” value ([2]; 600 mg) was 0. The “Worst treatment-emergent toxicity: Neutrophils decrease Grade 3” value ([2]; 600 mg) was 4, the “Worst treatment-emergent toxicity: Neutrophils decrease Grade 4” value ([2]; 600 mg) was 0 and the “Worst treatment-emergent toxicity: Urine RBC increased Grade 3” value ([2]; 600 mg) was 5. For the same compound, the “Worst treatment-emergent toxicity: Urine WBC increased Grade 3” value ([2]; 600 mg) was 2, the “Worst treatment-emergent toxicity: Urine glucose increased Grade 3” value ([2]; 600 mg) was 0 and the “Worst treatment-emergent toxicity: Urine protein increased Grade 3” value ([2]; 600 mg) was 2. For the same compound, the “laboratory values, electrocardiograms, and vital signs” value ([2]; clinical study) was “No safety concerns were noted”, the “Drug termination: Discontinued” value [3, 5] was 20.7% and the “Drug termination: Discontinued, Adverse event” value [3, 5] was “(10.3%)”. For the same compound, the “Drug termination: Discontinued” value ([3]; Cmpd (1) 300 mg + OST placebo, Full Analysis Set, listed as Cmpd (1)) was “(20.7%)”, the “Drug termination: Discontinued” value [3, 6] was 14 (18.9%) and the “Drug termination: Discontinued, Adverse event” value [3, 6] was 7 (9.5%). For the same compound, the “Drug termination: Discontinued” value [3, 7] was 14.0%, the “Drug termination: Discontinued, Adverse event” value [3, 7] was “(5.3%)” and the “Drug termination: Discontinued” value ([3]; Cmpd (1) 600 mg + OST placebo, Full Analysis Set, listed as Cmpd (1)) was “(14.0%)”. The “Drug termination: Discontinued” value [3, 8] was 12 (16.2%), the “Drug termination: Discontinued, Adverse event” value [3, 8] was 3 (4.1%) and the “Median (95% CI)” value ([4]; Cmpd (1) 300 mg) was 99.0 (71.5;. The “Median (95% CI)” value ([4]; Cmpd (1) 600 mg) was 85.7 (55.3; and the “increase in time to resolution of the 7 primary influenza symptoms versus placebo” value ([4]; Compound (1) 300 mg bid, accelerated failure time model) was 7%.
